In test [1] the target is IL-17A(FLAG-Tagged): IL-17RA(His-Tagged) (Homo sapiens, UniProt Q16552, K93Q). Description: IL-17A(FLAG-Tagged): IL-17RA(His-Tagged) Binding Disruption Eu-HTRF Assay. The following applies: IL-17A/IL-17RA binding disruption, simple average if tested more than once. The procedure, abridged:
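IC50 comes from a one-site competition fit of the HTRF 665/620 nm ratio. Compound dilutions (2-fold, 22 points) were held 1 h rt with FLAG-tagged IL-17A dimer, then His-tagged IL-17RA plus Eu-cryptate anti-FLAG and D2 anti-His antibodies were added for 2 h rt.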

In test [2] the test system is IL-17A-induced G-CSF production in human normal keratinocyte (NHK). Nature of the test: NHK Assay: IL-17A-induced G-CSF production in human normal keratinocytes. The class given is cell-based. The following applies: adult normal human keratinocytes, IL-17A 5 ng/mL, 24 h, simple average if tested more than once. The procedure, abridged: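 Inhibition of IL-17A-driven G-CSF release is measured in adult keratinocytes stimulated for 24 h at 37° C with 5 ng/mL human IL-17A that had been pre-incubated with compound for 1 h. IC50 comes from HTRF G-CSF levels; cell viability is checked in parallel by luminescent ATP assay.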

Where a name gives a salt, the structure may show the parent alone.

Sequence of UniProt Q16552 (Q16552 with tags, fused parts or gaps K93Q): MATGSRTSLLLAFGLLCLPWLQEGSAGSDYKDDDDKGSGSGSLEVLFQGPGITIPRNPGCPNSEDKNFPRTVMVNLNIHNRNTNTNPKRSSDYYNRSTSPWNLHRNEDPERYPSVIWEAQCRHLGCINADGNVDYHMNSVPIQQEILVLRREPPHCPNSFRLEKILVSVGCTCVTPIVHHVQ

On to `CC(C)c1oncc1C(=O)N[C@H](c1cn2ncc([C@H](NC(=O)CCC(F)(F)F)C3CC3)cc2n1)C1CCC(F)(F)CC1` [Example 89, N—((S)-(7-((R)-Cyclopropyl(4,4,4-trifluorobutanamido)methyl)imidazo[1,2-b]pyridazin-2-yl)(4,4-difluorocyclohexyl)methyl)-5-isopropylisoxazole-4-carboxamide], for which the results for the IC50 in test [1] and in test [2] were 43 nM and 65 nM, respectively.
The matching figures for `[2H]C([2H])([2H])C([2H])([2H])n1nccc1C(=O)N[C@H](c1cn2ncc(C(NC(=O)CC3CC(F)(F)C3)C3CCC3)cc2n1)C1CCC(F)(F)CC1` (single isomer, unassigned) [Example 496, N—((S)-(7-((S*)-Cyclobutyl(2-(3,3-difluorocyclobutyl)acetamido)methyl)imidazo[1,2-b]pyridazin-2-yl)(4,4-difluorocyclohexyl)methyl)-1-(ethyl-d5)-1H-pyrazole-5-carboxamide]: 690 nM and 10000 nM.
Consider `Cc1nonc1C(=O)N[C@H](c1cn2ncc([C@H](NC(=O)C(F)CC3CC3)C3CC3)cc2n1)C1CCC(F)(F)CC1` (single isomer, unassigned) [Example 344, N—((S)-(7-((R)-Cyclopropyl((R*)-3-cyclopropyl-2-fluoropropanamido)methyl)imidazo[1,2-b]pyridazin-2-yl)(4,4-difluorocyclohexyl)methyl)-4-methyl-1,2,5-oxadiazole-3-carboxamide], for which the IC50 in test [1] was 52 nM; in test [2], 230 nM.
On to `[2H]C([2H])([2H])C([2H])([2H])n1nccc1C(=O)N[C@@H](CC(C)(C)C(F)(F)F)c1cn2ncc([C@H](NC(=O)CC3CC(F)(F)C3)C3CC3)cc2n1` [Example 545, N—((S)-1-(7-((R)-Cyclopropyl(2-(3,3-difluorocyclobutyl)acetamido)methyl)imidazo[1,2-b]pyridazin-2-yl)-4,4,4-trifluoro-3,3-dimethylbutyl)-1-(ethyl-d5)-1H-pyrazole-5-carboxamide], for which the IC50 was 170 nM in test [1] and 150 nM in test [2] (Homo sapiens, Keratinocyte).
As to `Cn1nccc1C(=O)N[C@H](c1cn2ncc(CNC(=O)[C@@H]3NCCC[C@H]3C(F)(F)F)cc2n1)C1CCCCC1` (relative stereo) [Example 3, (Trans-2R*,3R*)—N-((2-((S)-cyclohexyl(1-methyl-1H-pyrazole-5-carboxamido)methyl)imidazo[1,2-b]pyridazin-7-yl)methyl)-3-(trifluoromethyl)piperidine-2-carboxamide hydrochloride], the IC50 in test [1] is 97 nM; in test [2] (Homo sapiens, Keratinocyte) it was 300 nM.
Turning to `CC(C)n1nccc1C(=O)N[C@H](c1cn2ncc([C@H](NC(=O)CCC3CC3(F)F)C3CC3)cc2n1)C1CCC(F)(F)CC1` (single isomer, unassigned) [Example 270, N—((S)-(7-((R)-Cyclopropyl(3-((R*)-2,2-difluorocyclopropyl)propanamido)methyl)imidazo[1,2-b]pyridazin-2-yl)(4,4-difluorocyclohexyl)methyl)-1-isopropyl-1H-pyrazole-5-carboxamide], the IC50 in test [1] is 150 nM; in test [2] (Homo sapiens, Keratinocyte) it was 38 nM.
The matching figures for `[2H]C([2H])([2H])C([2H])([2H])n1nccc1C(=O)N[C@H](c1cn2ncc([C@H](NC(=O)C[C@@H](C)C(F)(F)F)C3CCC3)cc2n1)C1CCC(F)(F)CC1` (relative stereo) [Example 501, N—((S)-(7-((R*)-Cyclobutyl((R*)-4,4,4-trifluoro-3-methylbutanamido)methyl)imidazo[1,2-b]pyridazin-2-yl)(4,4-difluorocyclohexyl)methyl)-1-(ethyl-d5)-1H-pyrazole-5-carboxamide]: 120 nM and 95 nM.
Regarding `Cc1nonc1C(=O)N[C@H](c1cn2ncc(C(NC(=O)CC3CC(F)(F)C3)C3(C#N)CC3)cc2n1)C1CCC(F)(F)CC1` (single isomer, unassigned) [Example 423, N—((S)-(7-((S*)-(1-Cyanocyclopropyl)(2-(3,3-difluorocyclobutyl)acetamido)methyl)imidazo[1,2-b]pyridazin-2-yl)(4,4-difluorocyclohexyl)methyl)-4-methyl-1,2,5-oxadiazole-3-carboxamide], the IC50 in test [1] is 78 nM; in test [2] (Homo sapiens, Keratinocyte) it was 130 nM.
On to `CC(C)n1nccc1C(=O)N[C@H](c1cn2ncc([C@H](NC(=O)C[C@H]3C[C@H](F)C3)C3CC3)cc2n1)C1CCC(F)(F)CC1` (single isomer, unassigned) [Example 258], for which the half-maximal inhibitory concentration (IC50) in test [1] came to 130 nM; in test [2] (Homo sapiens, Keratinocyte), 46 nM.
Turning to `O=C(CCC(F)(F)F)N[C@@H](c1cnn2cc([C@@H](NC(=O)c3cccc(OC(F)F)c3)C3CCC(F)(F)CC3)nc2c1)C1CC1` [Example 167, N—((S)-(7-((R)-Cyclopropyl(4,4,4-trifluorobutanamido)methyl)imidazo[1,2-b]pyridazin-2-yl)(4,4-difluorocyclohexyl)methyl)-3-(difluoromethoxy)benzamide], the IC50 in test [1] turned out to be 37 nM; in test [2] (Homo sapiens, Keratinocyte), 160 nM.
Take `CC(C)n1cncc1C(=O)N[C@H](c1cn2ncc([C@H](NC(=O)CCC(F)(F)F)C3CC3)cc2n1)C1CCC(F)(F)CC1` [Example 85, N—((S)-(7-((R)-Cyclopropyl(4,4,4-trifluorobutanamido)methyl)imidazo[1,2-b]pyridazin-2-yl)(4,4-difluorocyclohexyl)methyl)-1-isopropyl-1H-imidazole-5-carboxamide]: the IC50 was 250 nM in test [1] and 340 nM in test [2] (Homo sapiens, Keratinocyte).
Consider `Cc1nonc1C(=O)N[C@H](c1cn2ncc([C@H](NC(=O)[C@@H]3CNC[C@H]3C(F)(F)F)C3CC3)cc2n1)C1CCC(F)(F)CC1` (relative stereo) [Example 356, N—((S)-(7-((R)-Cyclopropyl((trans-3S*,4S*)-4-(trifluoromethyl)pyrrolidine-3-carboxamido)methyl)imidazo[1,2-b]pyridazin-2-yl)(4,4-difluorocyclohexyl)methyl)-4-methyl-1,2,5-oxadiazole-3-carboxamide], for which the IC50 was found to be 520 nM in test [1] and 7800 nM in test [2] (Homo sapiens, Keratinocyte).
For the compound `N#CC12CC(Cn3cc(C(=O)N[C@H](c4cn5ncc([C@H](NC(=O)CCC(F)(F)F)C6CC6)cc5n4)C4CCC(F)(F)CC4)nn3)(C1)C2` [Example 147, 1-((3-Cyanobicyclo[1.1.1]pentan-1-yl)methyl)-N—((S)-(7-((R)-cyclopropyl(4,4,4-trifluorobutanamido)methyl)imidazo[1,2-b]pyridazin-2-yl)(4,4-difluorocyclohexyl)methyl)-1H-1,2,3-triazole-4-carboxamide], the IC50 in test [1] was 1700 nM; in test [2] (Homo sapiens, Keratinocyte) it was > 20000 nM.
In the case of `O=C(CCC(F)(F)F)NC(c1cnn2cc(C(NC(=O)c3ncnn3CC3CC3(F)F)C3CCC(F)(F)CC3)nc2c1)C1CC1` [Example 475, N—((R)-(7-((S)-Cyclopropyl(4,4,4-trifluorobutanamido)methyl)imidazo[1,2-b]pyridazin-2-yl)(4,4-difluorocyclohexyl)methyl)-1-((2,2-difluorocyclopropyl)methyl)-1H-1,2,4-triazole-5-carboxamide], the IC50 in test [1] was 130 nM; in test [2] (Homo sapiens, Keratinocyte) it was 330 nM.
On to `Cc1nc(C)c(C(=O)N[C@H](c2cn3ncc([C@H](NC(=O)CCC(F)(F)F)C4CC4)cc3n2)C2CCC(F)(F)CC2)o1` [Example 472, N—((S)-(7-((R)-Cyclopropyl(4,4,4-trifluorobutanamido)methyl)imidazo[1,2-b]pyridazin-2-yl)(4,4-difluorocyclohexyl)methyl)-2,4-dimethyloxazole-5-carboxamide], for which the IC50 in test [1] was 45000 nM; in test [2] (Homo sapiens, Keratinocyte), > 20000 nM.
Consider `CC(C)n1nccc1C(=O)N[C@H](c1cn2ncc(C(NC(=O)CC3CC(F)(F)C3)C(F)(F)F)cc2n1)C1CCC(F)(F)CC1` (single isomer, unassigned) [Example 422, N—((S)-(7-((S*)-1-(2-(3,3-Difluorocyclobutyl)acetamido)-2,2,2-trifluoroethyl)imidazo[1,2-b]pyridazin-2-yl)(4,4-difluorocyclohexyl)methyl)-1-isopropyl-1H-pyrazole-5-carboxamide], for which the IC50 is 260 nM in test [1] and 82 nM in test [2] (Homo sapiens, Keratinocyte).
`COc1cc(C(=O)N[C@H](c2cn3ncc([C@H](NC(=O)CCC(F)(F)F)C4CC4)cc3n2)C2CCC(F)(F)CC2)ncn1` [Example 465, N—((S)-(7-((R)-Cyclopropyl(4,4,4-trifluorobutanamido)methyl)imidazo[1,2-b]pyridazin-2-yl)(4,4-difluorocyclohexyl)methyl)-6-methoxypyrimidine-4-carboxamide]: the IC50 worked out at 920 nM in test [1] and 1600 nM in test [2] (Homo sapiens, Keratinocyte).
As to `O=C(CCC(F)(F)F)N[C@@H](c1cnn2cc([C@@H](NC(=O)c3nonc3C3CC3)C3CCC(F)(F)CC3)nc2c1)C1CC1` [Example 381, 4-Cyclopropyl-N—((S)-(7-((R)-cyclopropyl(4,4,4-trifluorobutanamido)methyl)imidazo[1,2-b]pyridazin-2-yl)(4,4-difluorocyclohexyl)methyl)-1,2,5-oxadiazole-3-carboxamide], the IC50 in test [1] was 27 nM; in test [2] (Homo sapiens, Keratinocyte), 31 nM.
On to `CCOCC(NC(=O)CC1CC(F)(F)C1)c1cnn2cc([C@@H](NC(=O)c3ccnn3C(C)C)C3CCC(F)(F)CC3)nc2c1` (single isomer, unassigned) [Example 528, N—((S)-(7-((R*)-1-(2-(3,3-Difluorocyclobutyl)acetamido)-2-ethoxyethyl)imidazo[1,2-b]pyridazin-2-yl)(4,4-difluorocyclohexyl)methyl)-1-isopropyl-1H-pyrazole-5-carboxamide], for which the IC50 in test [1] turned out to be 900 nM; in test [2] it was 2400 nM.

The record behind these values is patent US11702422B2, “Imidazopyridazines as modulators of IL-17” (Janssen Pharmaceutica NV, priority 2020, dated 2023).
